In one series the test system is XO. The following applies: concentration of 0.25 mg/mL; cited from earlier work. Here is the method:
Nongonierma reported that Trp inhibited XO by 70.3 ± 1.1% at a concentration of 0.25 mg/mL. Li claimed that relatively lower IC50 values were mainly located in the peptides containing Trp residue, reporting that the IC50 values of peptides WDD, WDQW, PPKNW, WPPKN, and WSREEQE were lower than those of peptides HCPF and ADIYTE, and that these ...

Series [1] has as its target T1, xanthine oxidase (XO) (Bos taurus, UniProt P80457).
T1 construct: xanthine oxidase (X1875-5UN, derived from bovine milk); purchased Solarbio Co., Ltd. (Beijing, China) X1875-5UN; host or cells: bovine milk
The series can be described thus: XOI activity IC50 in vitro (uric acid formation, absorbance 290 nm). As to conditions: for XOI activity at 15 mg/mL: peptide at 15 mg/mL; for IC50: synthesized peptides, 0.2 M potassium phosphate buffer pH 7.4, XO 0.07 U/mL, xanthine 0.48 mM, 37 °C, absorbance 290 nm, mean ± SD, n = 3, SD. It is filed as biochemical, bovine milk. Here is the method: The XOI activity levels of SYCHs were determined and calculated with the methods reported by Liu and Wei with slight modifications. Xanthine was dissolved in 0.2 M potassium phosphate buffer (pH = 7.4) to a concentration of 0.48 mM. In addition, samples (SYCH, UF-1, UF-2, and UF-3) were also dissolved in 0.2 M potassium phosphate buffer (pH = 7.4). Next, 50 μL of sample solution and 50 μL of XO solution (0.07 U/mL) were mixed and incubated at 37 °C for 5 min, then 150 μL of xanthine solution was added to the mixture to continue the reaction. The absorbance of formed uric acid in the samples was monitored at 290 nm with a multifunctional microplate reader (Tecan Co., Ltd., Männedorf, Switzerland). The results were recorded for 10 min. The assay was performed in triplicate. The formula for the calculation of XOI activity is as follows: […]=(dA/dt)blank−(dA/dt)sample/(dA/dt)blank × 100% where (dA/dt)blank and (dA/dt)sample are the reaction rate without and with the test sample inhibitor, respectively. IC50 values were calculated from the mean values of data. XOI activity IC50 (the concentration of active compound required to observe 50% XO inhibition) was determined by plotting the percentage inhibition as a function of concentration of the test compound.

Series [2] is described as follows: Dissolution of synthesized peptides in water. It is filed as physicochemical.
For series [3], the target named is xanthine oxidase (XO). As to conditions: peptide from Skipjack tuna hydrolysates; read-out: XOI activity of IC50; cited from earlier work. The text has this:
Seven peptides (WDDMEKIW, APPERKYSVW, IADRMQKELT, LNSADLIK, LSNLGIVI, IGALRAVA, and HHTFYNELR) derived from SYC were obtained and their activity values, hemolysis, and toxicity were predicted. Their basic data (AA sequence, MW, PI, predicted activity values, hemolysis, toxicity, and IC50 for XOI activity) are summarized in Table 3. […] Only WW8 and AW10 were predicted to have higher potential physiological activity, and all were non-hemolytic except LSNLGIVI and LNSADLIK. The r ...

No end group written: not given here.

T1 sequence (P80457 whole entry): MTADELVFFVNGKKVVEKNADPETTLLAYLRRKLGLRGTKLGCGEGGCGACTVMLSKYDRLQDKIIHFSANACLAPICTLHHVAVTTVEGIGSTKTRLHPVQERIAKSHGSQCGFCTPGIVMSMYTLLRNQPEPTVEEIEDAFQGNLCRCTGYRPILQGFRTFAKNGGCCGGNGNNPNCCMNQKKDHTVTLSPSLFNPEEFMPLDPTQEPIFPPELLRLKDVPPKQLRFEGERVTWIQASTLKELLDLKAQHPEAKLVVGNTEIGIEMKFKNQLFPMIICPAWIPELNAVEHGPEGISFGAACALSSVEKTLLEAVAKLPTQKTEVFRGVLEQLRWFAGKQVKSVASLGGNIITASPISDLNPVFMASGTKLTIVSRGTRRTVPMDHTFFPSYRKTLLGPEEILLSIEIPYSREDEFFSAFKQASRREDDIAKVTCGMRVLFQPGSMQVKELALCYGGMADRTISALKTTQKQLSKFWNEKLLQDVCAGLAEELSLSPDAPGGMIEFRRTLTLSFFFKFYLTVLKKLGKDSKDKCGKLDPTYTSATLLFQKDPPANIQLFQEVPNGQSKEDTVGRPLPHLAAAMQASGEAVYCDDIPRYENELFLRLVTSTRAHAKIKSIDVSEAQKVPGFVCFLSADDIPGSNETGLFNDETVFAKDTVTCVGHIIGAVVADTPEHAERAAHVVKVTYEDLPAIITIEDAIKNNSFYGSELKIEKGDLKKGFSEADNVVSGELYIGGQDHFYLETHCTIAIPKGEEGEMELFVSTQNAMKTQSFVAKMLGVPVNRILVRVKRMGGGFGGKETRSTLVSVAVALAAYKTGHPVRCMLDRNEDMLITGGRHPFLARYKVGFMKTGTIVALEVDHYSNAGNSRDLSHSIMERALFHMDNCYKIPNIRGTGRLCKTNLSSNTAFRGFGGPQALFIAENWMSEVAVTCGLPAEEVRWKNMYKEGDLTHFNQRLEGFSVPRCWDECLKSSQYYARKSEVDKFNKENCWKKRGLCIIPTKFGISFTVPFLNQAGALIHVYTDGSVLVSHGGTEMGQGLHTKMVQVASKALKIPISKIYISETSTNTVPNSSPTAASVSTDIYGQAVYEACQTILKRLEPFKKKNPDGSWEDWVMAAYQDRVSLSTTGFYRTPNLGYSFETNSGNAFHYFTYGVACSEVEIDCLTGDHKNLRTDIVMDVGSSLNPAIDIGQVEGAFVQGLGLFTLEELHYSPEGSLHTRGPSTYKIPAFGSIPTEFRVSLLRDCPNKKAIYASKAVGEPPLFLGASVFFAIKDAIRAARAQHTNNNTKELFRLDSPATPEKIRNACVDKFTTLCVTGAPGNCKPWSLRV

For `N[C@@H](Cc1c[nH]c2ccccc12)C(=O)O` [Trp], in the series with XO, the “Inhibition of XO” value is listed as 70.3 ± 1.1%. Regarding IADRMQKELT [peptide derived from SYC], the “XOI activity at 15 mg/mL” value at xanthine oxidase (XO) [1] is “no XOI activity”.

On to “APPERKYSVW [APPERKYSVW, Ala-Pro-Pro-Glu-Arg-Lys-Tyr-Ser-Val-Trp]”, for which the half-inhibitory concentration (IC50) – broadly, the concentration that gives 50% inhibition – on xanthine oxidase (XO) [1] is 5.86 ± 0.02 mM. Regarding HHTFYNELR [peptide derived from SYC], the “Dissolution in water at 3 mg/mL” value in series [2] is recorded as “did not even dissolve in water”.

Take IGALRAVA [peptide derived from SYC]: the “Dissolution in water at 3 mg/mL” value in series [2] was “did not even dissolve in water”. With “WDDMEKIW [WDDMEKIW, Trp-Asp-Asp-Met-Glu-Lys-Ile-Trp]”, on xanthine oxidase (XO) [1], it took 3.16 ± 0.03 mM to reach half-maximal inhibition (IC50).

Take LNSADLIK [peptide derived from SYC]: the “XOI activity at 15 mg/mL” value at xanthine oxidase (XO) [1] is given as “no XOI activity”. LSNLGIVI [peptide derived from SYC]: the “Dissolution in water at 3 mg/mL” value in series [2] is “did not even dissolve in water”. Turning to “ACECD [XOI peptide from Skipjack tuna hydrolysates]”, the 50% inhibitory concentration (IC50) at xanthine oxidase (XO) [3] was 13.4 mM.

(Values after PMC10001067, “Xanthine Oxidase Inhibitory Peptides from Larimichthys polyactis: Characterization and In Vitro/In Silico Evidence” (Foods, 2023).)
